Test results: ChEMBL document CHEMBL1201862, “PubChem BioAssay data set” (2004)
The source made the active and inactive calls.

Legend:
[1] = target: T1, High affinity choline transporter 1 (Homo sapiens, UniProt Q9GZV3); experiment: human choline transporter blockers, potency – cell-based, 5-point CRC, membrane potential dye, dose response (AID 504840); assay type: functional
T1 sequence (Q9GZV3 whole entry): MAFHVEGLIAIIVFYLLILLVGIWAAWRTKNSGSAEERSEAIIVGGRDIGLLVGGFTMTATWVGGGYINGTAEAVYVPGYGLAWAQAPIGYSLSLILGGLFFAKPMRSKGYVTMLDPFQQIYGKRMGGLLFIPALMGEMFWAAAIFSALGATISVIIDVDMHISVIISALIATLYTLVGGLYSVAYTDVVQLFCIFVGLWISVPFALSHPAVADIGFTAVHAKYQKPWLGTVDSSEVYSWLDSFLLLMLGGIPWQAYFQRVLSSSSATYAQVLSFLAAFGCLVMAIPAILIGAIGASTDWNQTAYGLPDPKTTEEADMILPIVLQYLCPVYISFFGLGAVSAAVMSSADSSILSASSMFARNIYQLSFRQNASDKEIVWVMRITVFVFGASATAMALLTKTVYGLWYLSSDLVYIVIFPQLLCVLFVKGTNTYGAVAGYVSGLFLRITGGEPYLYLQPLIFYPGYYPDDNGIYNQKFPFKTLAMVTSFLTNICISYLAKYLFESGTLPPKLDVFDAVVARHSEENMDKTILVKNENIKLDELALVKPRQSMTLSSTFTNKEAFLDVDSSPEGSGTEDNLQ

[2] = target: Large T antigen (Simian virus 40, UniProt P03070); assay type: functional, Betapolyomavirus macacae;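 also: Confirmatory-stage PubChem screen for compounds that inhibit SV40 T antigen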
[3] = target: T1, High affinity choline transporter 1; experiment: human choline transporter blockers, potency – cell-based, 10-point CRC, membrane potential dye, dose response (AID 588401); assay type: functional;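 also: membrane potential dye fluorescence of choline-evoked depolarization via CHT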
[4] = reduction of Shn3 3'UTR-driven luciferase in osteoblasts – cell-based, Clone20 osteoblasts, firefly luciferase, cherry-picked, dose response (AID 624132); assay type: functional;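 also: firefly luciferase luminescence from reporter carrying the Shn3 3'UTR in osteoblasts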
[5] = target: T2, Replicative DNA helicase DnaB (Mycobacterium tuberculosis, UniProt P9WMR3); experiment: DnaB intein splicing inhibitors, dose response, biochemical, cell-free fluorescence (AID 449749); assay type: functional
T2 sequence (P9WMR3 whole entry): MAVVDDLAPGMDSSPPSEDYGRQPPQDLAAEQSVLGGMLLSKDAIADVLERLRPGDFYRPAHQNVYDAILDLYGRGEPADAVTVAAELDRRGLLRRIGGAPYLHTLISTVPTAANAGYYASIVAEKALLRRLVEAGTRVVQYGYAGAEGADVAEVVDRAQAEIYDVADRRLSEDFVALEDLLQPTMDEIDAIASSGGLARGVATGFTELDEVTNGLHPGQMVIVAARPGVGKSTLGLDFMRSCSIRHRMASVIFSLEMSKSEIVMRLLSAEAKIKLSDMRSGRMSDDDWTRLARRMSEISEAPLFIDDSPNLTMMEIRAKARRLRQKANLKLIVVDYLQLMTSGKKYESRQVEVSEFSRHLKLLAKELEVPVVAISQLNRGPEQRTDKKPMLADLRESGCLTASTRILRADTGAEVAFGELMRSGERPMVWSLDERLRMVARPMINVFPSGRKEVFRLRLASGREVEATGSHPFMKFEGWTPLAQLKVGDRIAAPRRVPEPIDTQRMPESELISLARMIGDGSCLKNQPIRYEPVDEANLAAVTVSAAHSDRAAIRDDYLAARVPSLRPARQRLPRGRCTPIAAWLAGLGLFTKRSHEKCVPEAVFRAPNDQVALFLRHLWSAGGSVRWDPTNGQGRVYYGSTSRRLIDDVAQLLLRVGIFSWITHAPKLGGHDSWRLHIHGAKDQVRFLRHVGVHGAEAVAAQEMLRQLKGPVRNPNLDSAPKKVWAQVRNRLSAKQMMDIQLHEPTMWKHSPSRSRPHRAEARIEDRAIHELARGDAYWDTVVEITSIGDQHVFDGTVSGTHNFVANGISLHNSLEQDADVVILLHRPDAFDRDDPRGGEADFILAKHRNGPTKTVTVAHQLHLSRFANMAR

[6] = target: Heat shock protein HSP 90-alpha (Homo sapiens, UniProt P07900); assay type: functional, organism-based
[7] = target: T3, Protein RecA (Mycobacterium tuberculosis, UniProt P9WHJ3); experiment: Fluorescence Cell-Free Homogeneous Dose Retest to Identify Inhibitors of RecA-Intein Splicing Activity. [Related pubchem assays (depositor defined):AID2097, AID2223, AID489010, AID492950]; assay type: functional
T3 sequence (P9WHJ3 whole entry): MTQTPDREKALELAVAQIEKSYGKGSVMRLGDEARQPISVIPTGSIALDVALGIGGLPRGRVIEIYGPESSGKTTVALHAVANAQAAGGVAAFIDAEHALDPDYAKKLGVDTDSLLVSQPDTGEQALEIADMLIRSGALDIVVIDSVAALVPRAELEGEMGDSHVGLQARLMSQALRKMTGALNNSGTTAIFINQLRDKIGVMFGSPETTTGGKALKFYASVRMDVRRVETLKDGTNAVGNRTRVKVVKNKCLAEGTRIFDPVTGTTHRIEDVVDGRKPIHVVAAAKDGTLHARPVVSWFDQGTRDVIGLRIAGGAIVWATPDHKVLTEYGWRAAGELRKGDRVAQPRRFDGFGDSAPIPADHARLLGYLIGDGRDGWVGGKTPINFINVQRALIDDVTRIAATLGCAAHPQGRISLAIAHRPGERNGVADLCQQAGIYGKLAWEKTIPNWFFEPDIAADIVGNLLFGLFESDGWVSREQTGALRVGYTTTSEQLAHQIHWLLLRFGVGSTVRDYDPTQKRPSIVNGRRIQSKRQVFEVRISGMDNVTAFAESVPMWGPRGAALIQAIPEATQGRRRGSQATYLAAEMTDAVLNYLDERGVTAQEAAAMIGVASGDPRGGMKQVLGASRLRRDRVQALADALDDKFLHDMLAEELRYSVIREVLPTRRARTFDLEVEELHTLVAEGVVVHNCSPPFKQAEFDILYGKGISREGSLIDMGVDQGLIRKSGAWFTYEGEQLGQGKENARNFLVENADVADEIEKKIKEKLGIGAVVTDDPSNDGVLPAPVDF

[8] = test system: INS1; experiment: INS-1E survival protection against cytokine death – cell-based, luminescence, retest, dose response (AID 449756); assay type: functional; settings: Rattus norvegicus;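 also: cell death triggered by IL-1 beta plus TNF-alpha plus IFN-gamma mixture; protective hits raise ATP signal compared with cytokine alone wells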
[9] = non-specific 3'UTR reporter inhibition in Clone20-Shn3RL – cell-based, Renilla luciferase, cherry-picked, counter-screen for Shn3 inhibitor project, dose response (AID 624133); assay type: functional
[10] = target: ATP-binding cassette sub-family B member 6 (Homo sapiens, UniProt Q9NP58); experiment: concentration-dependent ABCB6 porphyrin transport blockade – K562-ABCB6 cells, flow cytometry, cherry pick 1, dose response (AID 623955); assay type: functional; settings: read-out: EC50_MICROM
[11] = loss of viability in HepG2 cells – cell-based, CellTiter-Glo, cherry-picked, cytotoxicity control for Shn3 inhibitor project, dose response (AID 624134); assay type: functional
[12] = target: Potassium voltage-gated channel subfamily KQT member 2 (Rattus norvegicus, UniProt O88943); experiment: blockers of KCNQ2 channel current – cell-based, automated electrophysiology, set II, rat KCNQ2, dose response (AID 588637); assay type: functional
[13] = target: Dual specificity tyrosine-phosphorylation-regulated kinase 1A (Rattus norvegicus, UniProt Q63470); assay type: biochemical, Homo sapiens
[14] = target: T4, Probable nicotinate-nucleotide adenylyltransferase (Staphylococcus aureus (strain N315), UniProt P65502); assay type: functional, Staphylococcus aureus subsp. aureus N315;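 as to IC50 Mean: confirmatory dose-response retesting of NadD inhibitor hits first found in an ultra-high-throughput screen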
[15] = test system: Streptococcus sp. 'group A'; experiment: Streptococcus pyogenes SK(-)GAS viability under kanamycin – luminescence, BacTiterGlo, confirmation, counter-screen for streptokinase expression inhibitor project, dose response (AID 1900); assay type: functional, organism-based
[16] = target: T5, Streptokinase A (Streptococcus pyogenes serotype M1, UniProt P10520); experiment: viability-normalized secreted streptokinase activity reduction – plasminogen activation absorbance, OD405, dose response (AID 1914); assay type: functional, Streptococcus pyogenes M1 GAS;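 also: secreted streptokinase activity via plasminogen activation per viability signal from cell pellet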
T5 sequence (P10520 whole entry): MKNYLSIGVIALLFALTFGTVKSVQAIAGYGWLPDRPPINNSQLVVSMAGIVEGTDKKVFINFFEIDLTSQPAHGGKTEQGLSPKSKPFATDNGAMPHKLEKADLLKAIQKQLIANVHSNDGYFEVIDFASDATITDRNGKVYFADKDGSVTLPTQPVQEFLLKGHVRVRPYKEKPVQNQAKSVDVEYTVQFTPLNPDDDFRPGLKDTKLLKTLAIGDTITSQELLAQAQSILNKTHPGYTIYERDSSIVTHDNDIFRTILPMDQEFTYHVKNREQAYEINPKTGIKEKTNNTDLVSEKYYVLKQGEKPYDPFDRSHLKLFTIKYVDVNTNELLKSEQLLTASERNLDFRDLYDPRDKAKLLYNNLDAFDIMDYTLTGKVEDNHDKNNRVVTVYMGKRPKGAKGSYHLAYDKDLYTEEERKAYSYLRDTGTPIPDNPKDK

[17] = target: T6, Small ubiquitin-related modifier 1 (Homo sapiens, UniProt P63165); experiment: SUMO1 protein-protein binding blockers, potency – biochemical, FRET, dose response (AID 624383); assay type: functional; settings: read-out: IC50_Mean
[18] = target: DNA (cytosine-5)-methyltransferase 1 (Homo sapiens, UniProt P26358); experiment: inhibition of DNA methylation by DNMT1 – biochemical, fluorescent molecular beacon, confirmation (AID 602386); assay type: functional
[19] = target: T4, Probable nicotinate-nucleotide adenylyltransferase; assay type: functional, Staphylococcus aureus subsp. aureus N315; settings: read-out: IC50_Mean
[20] = target: T6, Small ubiquitin-related modifier 1; experiment: SUMO1 protein interaction blockers, potency – biochemical, fluorescence polarization, uHTS hits, dose response (AID 624382); assay type: functional; settings: read-out: IC50_Mean
[21] = test system: Streptococcus; experiment: GAS UMAA2166 growth inhibition – luminescence, BacTiterGlo, counter-screen for streptokinase expression inhibitor project, dose response (AID 1915); assay type: functional, organism-based;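 also: potency for reduction of bacterial viability or growth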

T4 sequence (P65502 whole entry): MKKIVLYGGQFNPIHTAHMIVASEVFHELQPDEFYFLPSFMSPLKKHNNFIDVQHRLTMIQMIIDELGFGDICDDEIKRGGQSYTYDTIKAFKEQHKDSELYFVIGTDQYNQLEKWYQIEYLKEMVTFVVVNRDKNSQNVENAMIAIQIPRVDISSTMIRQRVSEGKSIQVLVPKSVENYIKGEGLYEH
T6 sequence (P63165 whole entry): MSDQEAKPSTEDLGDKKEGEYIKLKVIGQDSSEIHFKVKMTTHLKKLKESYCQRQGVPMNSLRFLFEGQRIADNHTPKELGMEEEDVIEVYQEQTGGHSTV
DNA (cytosine-5)-methyltransferase 1, sequence (P26358 whole entry): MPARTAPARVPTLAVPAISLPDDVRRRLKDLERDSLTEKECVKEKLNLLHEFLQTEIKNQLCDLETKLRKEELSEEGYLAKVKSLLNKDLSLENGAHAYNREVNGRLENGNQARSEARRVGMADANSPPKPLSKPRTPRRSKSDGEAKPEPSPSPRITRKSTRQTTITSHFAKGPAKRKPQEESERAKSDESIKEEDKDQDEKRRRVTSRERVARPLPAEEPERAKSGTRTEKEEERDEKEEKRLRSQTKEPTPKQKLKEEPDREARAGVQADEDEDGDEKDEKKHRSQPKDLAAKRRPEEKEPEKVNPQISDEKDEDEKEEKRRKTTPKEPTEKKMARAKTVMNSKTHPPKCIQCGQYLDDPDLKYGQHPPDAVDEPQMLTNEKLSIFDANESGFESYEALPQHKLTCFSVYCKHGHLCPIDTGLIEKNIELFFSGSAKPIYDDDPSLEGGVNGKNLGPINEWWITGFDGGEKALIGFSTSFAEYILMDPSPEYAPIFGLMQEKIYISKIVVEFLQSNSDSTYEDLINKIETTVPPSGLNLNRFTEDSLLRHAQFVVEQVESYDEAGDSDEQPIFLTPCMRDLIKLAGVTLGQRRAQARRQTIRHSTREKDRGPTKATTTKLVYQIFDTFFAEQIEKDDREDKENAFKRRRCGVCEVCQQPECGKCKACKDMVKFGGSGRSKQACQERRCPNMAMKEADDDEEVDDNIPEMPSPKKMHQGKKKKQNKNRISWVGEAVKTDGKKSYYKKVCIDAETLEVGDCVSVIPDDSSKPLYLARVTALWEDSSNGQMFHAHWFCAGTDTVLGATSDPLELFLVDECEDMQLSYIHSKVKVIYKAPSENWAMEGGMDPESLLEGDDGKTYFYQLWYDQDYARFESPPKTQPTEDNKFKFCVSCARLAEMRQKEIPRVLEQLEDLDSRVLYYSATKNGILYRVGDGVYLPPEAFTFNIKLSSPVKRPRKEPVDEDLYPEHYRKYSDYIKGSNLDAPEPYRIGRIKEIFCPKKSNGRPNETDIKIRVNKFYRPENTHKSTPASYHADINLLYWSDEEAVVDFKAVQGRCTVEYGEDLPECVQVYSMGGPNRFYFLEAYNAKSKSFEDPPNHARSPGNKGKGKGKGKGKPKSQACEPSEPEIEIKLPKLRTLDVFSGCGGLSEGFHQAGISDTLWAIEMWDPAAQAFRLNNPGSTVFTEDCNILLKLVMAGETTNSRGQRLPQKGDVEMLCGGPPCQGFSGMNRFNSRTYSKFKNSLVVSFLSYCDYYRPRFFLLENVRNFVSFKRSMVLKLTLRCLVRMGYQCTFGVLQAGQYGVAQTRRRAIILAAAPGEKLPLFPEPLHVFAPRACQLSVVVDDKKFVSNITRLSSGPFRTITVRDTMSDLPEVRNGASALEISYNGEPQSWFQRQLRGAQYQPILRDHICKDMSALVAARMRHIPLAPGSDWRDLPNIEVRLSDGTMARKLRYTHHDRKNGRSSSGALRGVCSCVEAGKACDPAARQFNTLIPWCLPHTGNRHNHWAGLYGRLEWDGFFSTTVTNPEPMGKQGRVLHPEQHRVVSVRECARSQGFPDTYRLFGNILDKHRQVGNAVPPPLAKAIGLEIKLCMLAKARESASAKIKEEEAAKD
ATP-binding cassette sub-family B member 6, sequence (Q9NP58 whole entry): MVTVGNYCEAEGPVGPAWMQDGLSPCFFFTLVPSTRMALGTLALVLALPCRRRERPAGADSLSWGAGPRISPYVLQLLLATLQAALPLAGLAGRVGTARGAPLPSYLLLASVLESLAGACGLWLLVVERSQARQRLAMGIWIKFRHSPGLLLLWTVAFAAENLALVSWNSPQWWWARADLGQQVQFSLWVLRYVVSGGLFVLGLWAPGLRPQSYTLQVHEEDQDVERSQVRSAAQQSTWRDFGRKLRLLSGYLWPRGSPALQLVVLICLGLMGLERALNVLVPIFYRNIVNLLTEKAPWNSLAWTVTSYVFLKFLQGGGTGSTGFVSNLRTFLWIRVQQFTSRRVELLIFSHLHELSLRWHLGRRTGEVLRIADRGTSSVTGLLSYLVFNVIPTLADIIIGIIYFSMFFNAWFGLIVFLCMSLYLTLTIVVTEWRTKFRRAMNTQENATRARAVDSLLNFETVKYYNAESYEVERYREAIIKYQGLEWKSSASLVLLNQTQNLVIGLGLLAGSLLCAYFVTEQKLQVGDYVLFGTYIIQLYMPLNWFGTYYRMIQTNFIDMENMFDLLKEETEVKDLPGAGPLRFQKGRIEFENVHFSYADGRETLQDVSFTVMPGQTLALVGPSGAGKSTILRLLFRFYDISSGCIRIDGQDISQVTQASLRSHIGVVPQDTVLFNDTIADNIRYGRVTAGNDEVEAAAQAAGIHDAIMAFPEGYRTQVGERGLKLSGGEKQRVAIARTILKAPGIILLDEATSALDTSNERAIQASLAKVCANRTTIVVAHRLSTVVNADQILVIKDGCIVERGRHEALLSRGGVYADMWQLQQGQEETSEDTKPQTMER
Potassium voltage-gated channel subfamily KQT member 2, sequence (O88943 whole entry): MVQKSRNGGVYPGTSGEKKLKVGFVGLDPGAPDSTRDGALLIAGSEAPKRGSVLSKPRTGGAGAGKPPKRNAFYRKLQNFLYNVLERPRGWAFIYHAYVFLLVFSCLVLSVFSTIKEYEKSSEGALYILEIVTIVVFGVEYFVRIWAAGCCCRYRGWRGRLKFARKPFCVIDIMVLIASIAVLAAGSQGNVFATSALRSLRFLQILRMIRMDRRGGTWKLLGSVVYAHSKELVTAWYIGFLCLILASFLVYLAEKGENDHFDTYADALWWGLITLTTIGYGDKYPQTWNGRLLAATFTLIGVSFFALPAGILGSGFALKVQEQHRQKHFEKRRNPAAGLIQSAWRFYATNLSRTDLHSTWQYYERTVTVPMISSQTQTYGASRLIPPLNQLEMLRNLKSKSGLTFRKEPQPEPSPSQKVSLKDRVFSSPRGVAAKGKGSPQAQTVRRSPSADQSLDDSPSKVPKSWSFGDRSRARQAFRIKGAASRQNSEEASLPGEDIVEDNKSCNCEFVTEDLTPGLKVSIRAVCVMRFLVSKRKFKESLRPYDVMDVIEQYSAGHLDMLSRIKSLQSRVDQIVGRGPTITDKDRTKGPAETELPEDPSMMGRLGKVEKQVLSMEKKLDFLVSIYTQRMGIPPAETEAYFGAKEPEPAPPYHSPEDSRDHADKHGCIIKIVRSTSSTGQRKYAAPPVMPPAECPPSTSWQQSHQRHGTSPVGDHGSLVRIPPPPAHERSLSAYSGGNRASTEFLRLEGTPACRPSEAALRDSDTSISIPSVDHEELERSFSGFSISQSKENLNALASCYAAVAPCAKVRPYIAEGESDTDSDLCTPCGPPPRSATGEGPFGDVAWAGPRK
Large T antigen, sequence (P03070 whole entry): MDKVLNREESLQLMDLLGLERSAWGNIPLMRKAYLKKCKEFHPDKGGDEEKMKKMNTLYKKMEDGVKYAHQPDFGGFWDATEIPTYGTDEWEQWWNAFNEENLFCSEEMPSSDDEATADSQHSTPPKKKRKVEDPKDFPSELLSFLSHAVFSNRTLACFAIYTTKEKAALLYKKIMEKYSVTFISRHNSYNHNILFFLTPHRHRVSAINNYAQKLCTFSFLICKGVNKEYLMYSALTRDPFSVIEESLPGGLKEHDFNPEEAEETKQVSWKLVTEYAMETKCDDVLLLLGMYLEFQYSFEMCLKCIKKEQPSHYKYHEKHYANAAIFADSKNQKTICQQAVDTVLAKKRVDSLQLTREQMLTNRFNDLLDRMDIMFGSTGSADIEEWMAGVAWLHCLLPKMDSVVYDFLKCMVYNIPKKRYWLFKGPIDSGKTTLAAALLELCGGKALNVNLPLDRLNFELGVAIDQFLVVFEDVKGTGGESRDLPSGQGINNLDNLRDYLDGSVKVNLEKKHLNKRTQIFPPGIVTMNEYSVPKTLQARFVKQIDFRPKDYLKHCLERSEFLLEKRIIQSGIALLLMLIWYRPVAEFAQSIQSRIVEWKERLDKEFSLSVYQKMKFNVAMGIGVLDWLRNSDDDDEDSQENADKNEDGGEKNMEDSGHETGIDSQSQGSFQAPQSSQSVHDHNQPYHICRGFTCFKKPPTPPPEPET

CCOC(=O)c1c(N)ssc1=S
IC50 [1]: 8.48 µM (active) | IC50 [2]: 95.5 µM (active) | IC50 [3]: 3.81 µM (active)

Cc1cccc(NC(=O)c2nc(S(=O)(=O)Cc3ccccc3)ncc2Cl)c1
AC50 [4]: 2.66 µM (active) | AC50 [5]: 21.9 µM (active) | AC50 [6]: 2.42 µM (active) | EC50 [7]: 10.6 µM (active) | AC50 [8]: 10.3 µM (active) | AC50 [9]: 6.26 µM (active) | EC50 [10]: 21.5 µM (active) | AC50 [11]: 17.5 µM (active)

CN1/C(=C\C(=S)NC(=O)c2cccc(Br)c2)C(C)(C)c2ccccc21
IC50 [12]: 4.27 µM (active) | AC50 [8]: 3.96 µM (active)

O=S(=O)(Nc1c(S(=O)(=O)c2ccccc2)c2nc3ccccc3nc2n1C1CCCCC1)c1ccccc1
AC50 [13]: 26.7 µM (active) | IC50 [14]: 5.42 µM (active) | EC50 [15]: 5.18 µM (active) | EC50 [16]: 5.18 µM (active) | IC50 [17]: 9.65 µM (active) | IC50 [18]: 5.23 µM (active) | IC50 [19]: 21.7 µM (active) | IC50 [20]: > 66.6 µM (inactive) | EC50 [21]: 12 µM (active)
